Assay results taken from US11912742B2, “Heterologous production of leupeptin protease inhibitors and analogs thereof” (YALE UNIVERSITY, priority 2020, dated 2024).
Where a SMILES comes first, the peptide text is derived from it.

Tests used:
[1] = Spontaneous conversion of pro-pyrazinones under aerobic conditions; assay type: physicochemical
[2] = system: chymotrypsin-type proteases; details: previously synthesized molecules; cited from earlier work
calpain protease = details: cited from earlier work
Plu4509 = test: In vitro enzyme assay of purified Plu4509 with leupeptin as substrate; assay type: biochemical, P. luminescens; details: His6x-tagged Plu4509; end point analysis; 1 h, 35° C.
trypsin-like proteases = details: cited from earlier work
[3] = cited from earlier work

SMILES | stability under aerobic conditions (conversion to pyrazinone) [1] | inhibition of chymotrypsin-type proteases [2] | other results
CC(C)C[C@@H]1N[C@@H]2N=C(N)N3CCC[C@@]23NC1=O [compound 9] | spontaneously converted to their pyrazinone counterpart 11 | – | –
CC(=O)N[C@@H](CC(C)C)C(=O)N[C@@H](CC(C)C)C(=O)N[C@H](C=O)Cc1ccc(O)cc1 [leupeptin B] (Ac-Leu-Leu-Tyr-aldehyde) | – | confirmed to inhibit chymotrypsin-type proteases | –
CC(C)C[C@@H]1N[C@@H]2N=C(N)N3CCC[C@]23NC1=O [compound 10] | spontaneously converted to their pyrazinone counterpart 11 | – | –
CC(C)Cc1ncc(Cc2ccc(O)cc2)[nH]c1=O [lumizinone A] | – | – | calpain protease inhibition (calpain protease): calpain protease inhibitor
CC(=O)NC(CC(C)C)C(=O)NC(CC(C)C)C(=O)NC(C=O)Cc1ccccc1 (stereo not drawn) [leupeptin C] (Ac-Leu-Leu-Phe-aldehyde; configuration not given here) | – | confirmed to inhibit chymotrypsin-type proteases | –
CC(=O)N[C@@H](CC(C)C)C(=O)N[C@@H](CC(C)C)C(=O)N[C@H](C=O)CCCNC(=N)N [leupeptin A, N-Acetyl-L-leucyl-L-leucyl-L-argininal] | – | – | cleavage by Plu4509: production of metabolites 10 and 11 from the substrate (Plu4509): significantly enhanced production of 10 and 11; inhibition of trypsin-like proteases (trypsin-like proteases): inhibits trypsin-like proteases; toxicity in humans [3]: very low toxicity
